The results in this text go back to US12098148B2, “Therapeutic compounds” (C4X Discovery Limited, priority 2018, dated 2024).

For test [1], the system named is NQO1 mRNA in BEAS-2B cells. In words: Beas2B NQO1 mRNA cell based assay. Also noted: species or system human. Particulars: Homo sapiens, BEAS-2B, 24 h, 24 h compound treatment, increase in NQO1 mRNA vs vehicle (0.1% DMSO), read-out: EC50. In a few lines:
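BEAS-2B human bronchial epithelial cells exposed to compound for 24 h at 37 °C, 5% CO2. NQO1 mRNA measured by one-step TaqMan RT-qPCR on unpurified lysates, normalized to β-actin; relative expression by ΔΔCT method.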

Test [2] addresses human KEAP1 (N-term, residues 321-609) (Homo sapiens, UniProt Q14145). As to the kind of experiment: biochemical.
Method: Biological Assays KEAP1 Kelch Fluorescence Polarization (FP) Assay Method
Inhibition of the Kelch domain-NRF2 interaction was determined using a fluorescence polarization-based competition assay in a black 384-well microplate. Compounds were tested at a starting concentration of 10 μM serially diluted 1:3 to generate a 12-point dose response curve on the Biomek FX robot.
After 1 h at room temperature, fluorescence polarization (excitation 470 nm/emission 530 nm) was measured using an Envision plate reader. IC50 values were determined by fitting the data to a four parameter logistic fit using XLfit or XE Runner within ActivityBase.
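Throughout, for IC50: fluorescence polarization competition assay of Kelch domain binding to NRF2, 12-point 1:3 dilution series from 10 µM, read after 1 h at room temperature, floor 10 nM.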

human KEAP1 (N-term, residues 321-609), sequence (Q14145 321-609): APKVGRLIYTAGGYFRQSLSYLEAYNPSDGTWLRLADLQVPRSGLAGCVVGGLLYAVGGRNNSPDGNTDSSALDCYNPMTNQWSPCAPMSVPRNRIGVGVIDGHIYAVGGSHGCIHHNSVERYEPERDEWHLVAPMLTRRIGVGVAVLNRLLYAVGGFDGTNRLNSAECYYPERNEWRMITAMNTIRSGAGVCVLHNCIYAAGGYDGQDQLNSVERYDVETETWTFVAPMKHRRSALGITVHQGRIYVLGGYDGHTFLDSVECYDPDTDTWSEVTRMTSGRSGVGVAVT

On to `Cn1nnc(COc2c(F)cc(Cl)c3c2[C@@H](CN2CCCC2=O)N(C(=O)[C@@H]2CCCC[C@]2(C)C(=O)O)CC3)c1C(F)F` [Example 147, (1S,2R)-2-((S)-5-chloro-8-((5-(difluoromethyl)-1-methyl-1H-1,2,3-triazol-4-yl)methoxy)-7-fluoro-1-((2-oxopyrrolidin-1-yl)methyl)-1,2,3,4-tetrahydroisoquinoline-2-carbonyl)-1-methylcyclohexane-1-carboxylic acid], for which, in test [1], the EC50 is 0.29 nM. This molecule had a half-maximal inhibitory concentration (IC50) in test [2] of 5.1 nM.

For the molecule `Cn1ccc(COc2ccc(Cl)c3c2[C@@H](CN2CC4(CC4)CC2=O)N(C(=O)[C@@H]2CCCC[C@]2(C)C(=O)O)CC3)cc1=O` [Example 148, (1S,2R)-2-((S)-5-chloro-8-((1-methyl-2-oxo-1,2-dihydropyridin-4-yl)methoxy)-1-((6-oxo-5-azaspiro[2.4]heptan-5-yl)methyl)-1,2,3,4-tetrahydroisoquinoline-2-carbonyl)-1-methylcyclohexane-1-carboxylic acid], the half-maximal effective concentration (EC50) in test [1] was 22 nM. Further, 6.6 nM corresponded to half-maximal inhibition in test [2] (IC50).

Consider `C[C@@H]1CC(=O)N(C[C@@H]2c3c(OCc4nnn(C)c4C(F)F)ccc(Cl)c3CCN2C(=O)[C@H]2CCCC[C@]2(C)C(=O)O)C1` [Example 149, (1S,2S)-2-((S)-5-chloro-8-((5-(difluoromethyl)-1-methyl-1H-1,2,3-triazol-4-yl)methoxy)-1-(((R)-4-methyl-2-oxopyrrolidin-1-yl)methyl)-1,2,3,4-tetrahydroisoquinoline-2-carbonyl)-1-methylcyclohexane-1-carboxylic acid], for which, in test [1], the concentration giving a half-maximal response (EC50) came out at 73 nM. In test [2], this molecule displayed an IC50 of 28 nM.

Turning to `Cn1nnc(COc2ccc(Cl)c3c2[C@@H](CN2CC4(CC4)CC2=O)N(C(=O)[C@@H]2CCCC[C@]2(C)C(=O)O)CC3)c1C(F)(F)F` [Example 150, (1S,2R)-2-((S)-5-chloro-8-((1-methyl-5-(trifluoromethyl)-1H-1,2,3-triazol-4-yl)methoxy)-1-((6-oxo-5-azaspiro [2.4]heptan-5-yl)methyl)-1,2,3,4-tetrahydroisoquinoline-2-carbonyl)-1-methylcyclohexane-1-carboxylic acid], in test [1], the EC50 was 0.97 nM. For the same molecule, 5 nM corresponded to half-maximal inhibition in test [2] (IC50).

Take `Cn1nnc(COc2ccc(Cl)c3c2[C@@H](CN2CC(C)(C)CC2=O)N(C(=O)[C@@H]2CCCC[C@]2(C)C(=O)O)CC3)c1C(F)F` [Example 152, (1S,2R)-2-((S)-5-chloro-8-((5-(difluoromethyl)-1-methyl-1H-1,2,3-triazol-4-yl)methoxy)-1-((4,4-dimethyl-2-oxopyrrolidin-1-yl)methyl)-1,2,3,4-tetrahydroisoquinoline-2-carbonyl)-1-methylcyclohexane-1-carboxylic acid]: in test [1], the concentration for a half-maximal effect (EC50) worked out at 10 nM. In addition, it took 7.2 nM to reach half-maximal inhibition in test [2] (IC50).

With `Cn1nnc(COc2ccc(Cl)c3c2[C@@H](CN2CC4(CC4)CC2=O)N(C(=O)[C@@H]2CCC[C@]2(C)C(=O)O)CC3)c1C(F)(F)F` [Example 153, (1S,2R)-2-((S)-5-chloro-8-((1-methyl-5-(trifluoromethyl)-1H-1,2,3-triazol-4-yl)methoxy)-1-((6-oxo-5-azaspiro [2.4]heptan-5-yl)methyl)-1,2,3,4-tetrahydroisoquinoline-2-carbonyl)-1-methylcyclopentane-1-carboxylic acid], in test [1], the EC50 is 7 nM. In test [2], this molecule gave a 50% inhibitory concentration (IC50) of 9 nM.

For `Cc1onc(COc2ccc(Cl)c3c2[C@@H](CN2CC4(CC4)CC2=O)N(C(=O)[C@@H]2CCCC[C@]2(C)C(=O)O)CC3)c1C(F)(F)F` [Example 154, (1S,2R)-2-((S)-5-chloro-8-((5-methyl-4-(trifluoromethyl)isoxazol-3-yl)methoxy)-1-((6-oxo-5-azaspiro[2.4]heptan-5-yl)methyl)-1,2,3,4-tetrahydroisoquinoline-2-carbonyl)-1-methylcyclohexane-1-carboxylic acid], in test [1], the EC50 was 18 nM. In test [2], 9.3 nM corresponded to half-maximal inhibition (IC50).

For `C[C@]1(C(=O)O)CCCC[C@H]1C(=O)N1CCc2c(Cl)ccc(OCc3nnn(CC(F)(F)F)c3C(F)F)c2[C@H]1CN1CCCC1=O` [Example 155, (1S,2R)-2-((S)-5-chloro-8-((5-(difluoromethyl)-1-(2,2,2-trifluoroethyl)-1H-1,2,3-triazol-4-yl)methoxy)-1-((2-oxopyrrolidin-1-yl)methyl)-1,2,3,4-tetrahydroisoquinoline-2-carbonyl)-1-methylcyclohexane-1-carboxylic acid], the half-maximal effective concentration (EC50) in test [1] turned out to be 4.8 nM. The molecule also displayed an IC50 in test [2] of 16 nM.

Take `Cc1c(COc2ccc(Cl)c3c2[C@@H](CN2CC4(CC4)CC2=O)N(C(=O)[C@@H]2CCCC[C@]2(C)C(=O)O)CC3)nnn1C` [Example 156, (1S,2R)-2-((S)-5-chloro-8-((1,5-dimethyl-1H-1,2,3-triazol-4-yl)methoxy)-1-((6-oxo-5-azaspiro[2.4]heptan-5-yl)methyl)-1,2,3,4-tetrahydroisoquinoline-2-carbonyl)-1-methylcyclohexane-1-carboxylic acid]: in test [1], the EC50 came to 0.29 nM. The molecule further displayed an IC50 in test [2] of 5.1 nM.

For `Cc1onc(COc2ccc(Cl)c3c2[C@@H](CN2CC4(CC4)CC2=O)N(C(=O)[C@@H]2CCCC[C@]2(C)C(=O)O)CC3)c1C(F)F` [Example 157, (1S,2R)-2-((S)-5-chloro-8-((4-(difluoromethyl)-5-methylisoxazol-3-yl)methoxy)-1-((6-oxo-5-azaspiro [2.4]heptan-5-yl)methyl)-1,2,3,4-tetrahydroisoquinoline-2-carbonyl)-1-methylcyclohexane-1-carboxylic acid], the EC50 in test [1] turned out to be 4.9 nM. For the same molecule, the 50% inhibitory concentration (IC50) in test [2] worked out at 5.9 nM.

For `Cn1cc(COc2ccc(Cl)c3c2[C@@H](CN2CC4(CC4)CC2=O)N(C(=O)[C@@H]2CCCC[C@]2(C)C(=O)O)CC3)nn1` [Example 158, (1S,2R)-2-((S)-5-chloro-8-((1-methyl-1H-1,2,3-triazol-4-yl)methoxy)-1-((6-oxo-5-azaspiro[2.4]heptan-5-yl)methyl)-1,2,3,4-tetrahydroisoquinoline-2-carbonyl)-1-methylcyclohexane-1-carboxylic acid], in test [1], the EC50 was 1.2 nM. This molecule showed an IC50 in test [2] of 6.3 nM.

`Cn1nnc(COc2ccc(Cl)c3c2[C@@H](CN2CC4(CC4)CC2=O)N(C(=O)[C@@H]2CCCC[C@]2(C)C(=O)O)CC3)c1C1CC1` [Example 159, (1S,2R)-2-((S)-5-chloro-8-((5-cyclopropyl-1-methyl-1H-1,2,3-triazol-4-yl)methoxy)-1-((6-oxo-5-azaspiro[2.4]heptan-5-yl)methyl)-1,2,3,4-tetrahydroisoquinoline-2-carbonyl)-1-methylcyclohexane-1-carboxylic acid]: the concentration giving a half-maximal response (EC50) in test [1] worked out at 0.22 nM. The molecule also registered an IC50 in test [2] of 6.7 nM.

In the case of `COCc1c(COc2ccc(Cl)c3c2[C@@H](CN2CC4(CC4)CC2=O)N(C(=O)[C@@H]2CCCC[C@]2(C)C(=O)O)CC3)nnn1C` [Example 160, (1S,2R)-2-((S)-5-chloro-8-((5-(methoxymethyl)-1-methyl-1H-1,2,3-triazol-4-yl)methoxy)-1-((6-oxo-5-azaspiro [2.4]heptan-5-yl)methyl)-1,2,3,4-tetrahydroisoquinoline-2-carbonyl)-1-methylcyclohexane-1-carboxylic acid], the EC50 in test [1] is 0.72 nM. Further, half-maximal inhibition in test [2] (IC50) required 5 nM.

Consider `C[C@@H]1CC(=O)N(C[C@@H]2c3c(OCc4cn(C)nn4)ccc(Cl)c3CCN2C(=O)[C@@H]2CCCC[C@]2(C)C(=O)O)C1` [Example 161, (1S,2R)-2-((S)-5-chloro-8-((1-methyl-1H-1,2,3-triazol-4-yl)methoxy)-(((R)-4-methyl-2-oxopyrrolidin-1-yl)methyl)-1,2,3,4-tetrahydroisoquinoline-2-carbonyl)-1-methylcyclohexane-1-carboxylic acid], for which, in test [1], the half-maximal effective concentration (EC50) is 11 nM. Further, it took 7.9 nM to reach half-maximal inhibition in test [2] (IC50).

Regarding `COCc1c(COc2ccc(Cl)c3c2[C@@H](CN2C[C@H](C)CC2=O)N(C(=O)[C@@H]2CCCC[C@]2(C)C(=O)O)CC3)nnn1C` [Example 162, (1S,2R)-2-((S)-5-chloro-8-((5-(methoxymethyl)-1-methyl-1H-1,2,3-triazol-4-yl)methoxy)-1-(((R)-4-methyl-2-oxopyrrolidin-1-yl)methyl)-1,2,3,4-tetrahydroisoquinoline-2-carbonyl)-1-methylcyclohexane-1-carboxylic acid], in test [1], the EC50 stood at 2.4 nM. In test [2], this molecule returned an IC50 of 6.3 nM.

As for `C[C@@H]1CC(=O)N(C[C@@H]2c3c(OCc4nnn(C)c4C4CC4)ccc(Cl)c3CCN2C(=O)[C@@H]2CCCC[C@]2(C)C(=O)O)C1` [Example 163, (1S,2R)-2-((S)-5-chloro-8-((5-cyclopropyl-1-methyl-1H-1,2,3-triazol-4-yl)methoxy)-1-(((R)-4-methyl-2-oxopyrrolidin-1-yl)methyl)-1,2,3,4-tetrahydroisoquinoline-2-carbonyl)-1-methylcyclohexane-1-carboxylic acid], the half-maximal effective concentration (EC50) in test [1] was found to be 0.78 nM. For the same molecule, 5.3 nM corresponded to half-maximal inhibition in test [2] (IC50).

As for `C[C@]1(C(=O)O)CCCC[C@H]1C(=O)N1CCc2c(Cl)ccc(OCc3noc4c(F)cccc34)c2[C@H]1CN1CCCC1=O` [Example 164, (1S,2R)-2-((S)-5-chloro-8-((7-fluorobenzo[d]isoxazol-3-yl)methoxy)-1-((2-oxopyrrolidin-1-yl)methyl)-1,2,3,4-tetrahydroisoquinoline-2-carbonyl)-1-methylcyclohexane-1-carboxylic acid], the EC50 in test [1] was 2.6 nM. Also, the IC50 in test [2] turned out to be 6 nM.

Take `C[C@]1(C(=O)O)CCCC[C@H]1C(=O)N1CCc2c(Cl)ccc(OCc3noc4c(F)c(F)ccc34)c2[C@H]1CN1CCCC1=O` [Example 165, (1S,2R)-2-((S)-5-chloro-8-((6,7-difluorobenzo[d]isoxazol-3-yl)methoxy)-1-((2-oxopyrrolidin-1-yl)methyl)-1,2,3,4-tetrahydroisoquinoline-2-carbonyl)-1-methylcyclohexane-1-carboxylic acid]: in test [1], the EC50 came out at 11 nM. This molecule registered a concentration for half-maximal inhibition (IC50) in test [2] of 8.4 nM.

As usually defined, the EC50 is the concentration needed to bring the measured effect to its halfway point. Usually IC50 stands for the concentration at which inhibition is half-maximal.
